Laboratory results reported in patent US20160008382A1, “METHODS OF TREATMENT OF CANCER” (Millennium Pharmaceuticals, Inc., priority 2012, published 2016).

Experiments:
[1] = tested on: relapsed or refractory mantle cell lymphoma; details: patients with relapsed or refractory mantle cell lymphoma, Phase II; cited from earlier work
nasopharyngeal cancer = test: Treatment of nasopharyngeal cancer patients with the compound of formula (III-A), IV twice-weekly; clinical response; format: in vivo, human
Procedure: (1) Tissue Microarray (obtained from US Biomax, Inc.) of primary nasopharyngeal cancer (n=35) (2) Tissue Microarray of metastatic nasopharyngeal cancer (obtained from US Biomax, Inc.) (n=15) (3) Tissue Microarray of other histologies of head and neck cancers (obtained from US Biomax, Inc.) (n=68) (4) Archival primary tumor biopsy samples of patients with head and neck squamous cell cancers (n=14). All samples were obtained under the appropriate informed consent. The patients were administered the compound of formula (III-A) on a twice-weekly schedule (days 1, 4, 8 and 11 of a 21-day cycle) as an IV injection. Of the primary tumor samples in (4), there were three patients with nasopharyngeal cancer.

[2] = on exposure to aqueous solution or plasma; cited from earlier work
[3] = tested on: hematological and solid tumor xenograft models; details: range of hematological and solid tumor xenograft models; cited from earlier work

CC(C)C[C@H](NC(=O)[C@H](Cc1ccccc1)NC(=O)c1cnccn1)B(O)O [bortezomib, N-2-pyrazinecarbonyl-L-phenylalanine-L-leucineboronic acid]
activity in patients [1]: activity

CC(C)C[C@H](NC(=O)CNC(=O)c1cc(Cl)ccc1Cl)B1OC(=O)C(CC(=O)O)(CC(=O)O)O1 [compound of formula (III-A), 2,2′-{2-[(1R)-1-({[(2,5-dichlorobenzoyl)amino]acetyl}amino)-3-methylbutyl]-5-oxo-1,3,2-dioxaborolane-4,4-diyl}diacetic acid]
clinical response, Patient 1 (nasopharyngeal cancer; Patient 1, metastatic nasopharyngeal cancer of a squamous cell type, IV injection days 1, 4, 8 and 11 of a 21-day cycle, NFκB p65 H-score 300): durable partial response | Responder/Non-responder, Patient 1 (nasopharyngeal cancer; Patient 1, nasopharyngeal cancer, NFκB p65 IHC assay H-score 300): Responder | disease progression, Patient 2 (time to progression) (nasopharyngeal cancer; Patient 2, nasopharyngeal cancer, IV injection days 1, 4, 8 and 11 of a 21-day cycle, NFκB p65 H-score 200): ≤ 4 cycles | Responder/Non-responder, Patient 2 (nasopharyngeal cancer; Patient 2, nasopharyngeal cancer, NFκB p65 IHC assay H-score 200): Non-responder | clinical response, Patient 3 (nasopharyngeal cancer; Patient 3, nasopharyngeal cancer, IV injection days 1, 4, 8 and 11 of a 21-day cycle, NFκB p65 H-score 160): progressive disease | Responder/Non-responder, Patient 3 (nasopharyngeal cancer; Patient 3, nasopharyngeal cancer, NFκB p65 IHC assay H-score 160): Non-responder | hydrolysis to the active form MLN2238 [2]: rapidly hydrolyzes | anti-tumor activity in xenograft models [3]: anti-tumor activity
